Consider ten molecules from ChEMBL document CHEMBL1130736, “Syntheses of new modified Phe-Pro peptides. Use of proline replacements in potential HIV inhibitors” (Bioorg Med Chem Lett, 1998).

SMILES strings stand for the structures. Peptide text beside a SMILES is read from it. * marks the point of attachment. Boc = CC(C)(C)OC(=O)*

A short description of data set [1]: Partition coefficient (logP). Type of data set: physicochemical. The settings on record: octanol/water.
Data set [2] has as its system MT4. Kind of data set: Concentration required to inhibit syncytia formation by 50% in HIV infected HIV-BRU MT-4 cells. Type of data set: functional, cell-based, Homo sapiens.
For data set [3], the system named is MT4. Kind of data set: Concentration required to cause 50% death of uninfected MT-4 cells. Type of data set: functional. The following applies: Homo sapiens.
Where [4] appears, read: Homo sapiens, MT4, read-out: IC50.

What is called logP is the decadic logarithm of the partition coefficient of the neutral form, usually between octanol and water. A low value points to lower lipophilicity. For orientation: IC50 means the concentration needed to halve the response being measured. Usually CC50 stands for the concentration that lowers cell viability or growth by half. Higher therefore signals better tolerance by the cells. Turning to `O=C1CCN(C(=O)[C@H](Cc2ccccc2)NC(=O)c2ccc3ccccc3n2)C1`, in data set [1], the log partition coefficient (logP) turned out to be 3.44. Also, the IC50 with MT4 [2] (setting [4]) stood at 10 µM. The same molecule registered a CC50 in the data set with MT4 [3] above 100 µM.
`CC(C)(C)OC(=O)N[C@@H](Cc1ccccc1)C(=O)N1CCC[C@H]1C(=O)O` (Boc-Phe-Pro-OH): the logP in data set [1] was determined as 3.96. The IC50 entry in the data set with MT4 [2] (mt4) is on record as “Not Active”. In the data set on MT4 [3], this molecule yielded a CC50 above 100 µM.
For the molecule `CC(C)(C)OC(=O)N[C@@H](Cc1ccccc1)C(=O)N1CCC(O)C1` (stereo not given in full), the logP in data set [1] was determined as 3.15. In the data set with MT4 [2] (setting [4]), the IC50 came out at 50 µM. For the same molecule, in the data set on MT4 [3], it took 100 µM to reach half-maximal cytotoxicity (CC50).
On to `O=C1CCN(C(=O)[C@H](Cc2ccccc2)NC(=O)c2ccccc2)C1`, for which, in data set [1], the logP amounted to 3.17. Also, the IC50 entry in the data set with MT4 [2] (mt4) is “Not Active”. It took 50 µM to reach half-maximal cytotoxicity in the data set with MT4 [3] (CC50).
The corresponding values for `CCCCCCCCOC(=O)N[C@@H](Cc1ccccc1)C(=O)N1CCC(=O)C1` are 5.38, “Not Active” and 50 µM.
For `CN(C(=O)N[C@@H](Cc1ccccc1)C(=O)N1CCC(=O)C1)c1ccccc1`, in that order: 3.33, “Not Active” and 50 µM.
The molecule `CC(C)(C)OC(=O)N[C@@H](Cc1ccccc1)C(=O)N1CCC(=O)C1` yielded a logP in data set [1] of 3.97. For the same molecule, in the data set on MT4 [2] (setting [4]), the concentration for half-maximal inhibition (IC50) worked out at 10 µM. The CC50 with MT4 [3] was 100 µM.
The corresponding values for `O=C1CCN(C(=O)[C@H](Cc2ccccc2)NC(=O)c2cccnc2)C1` are 2.31, 0.1 µM and above 100 µM.
On to `O=C1CCN(C(=O)[C@H](Cc2ccccc2)NC(=O)OCc2ccccc2)C1`, for which the logP in data set [1] was found to be 3.97. The half-maximal inhibitory concentration (IC50) in the data set with MT4 [2] (setting [4]) stood at 1 µM. In addition, the cytotoxic concentration (CC50) in the data set with MT4 [3] came to 50 µM.
`O=C1CCN(C(=O)[C@H](Cc2ccccc2)NC(=O)N(c2ccccc2)c2ccccc2)C1` returned a log partition coefficient (logP) in data set [1] of 4.86. In the data set on MT4 [2] (mt4), the concentration for half-maximal inhibition (IC50) result is reported as “Not Active”. Further, the 50% cytotoxic concentration (CC50) with MT4 [3] was above 100 µM.
